# Measured values: patent publication US11945806B2, “Stabilization of amyloidogenic immunoglobulin light chains” (The Scripps Research Institute, priority 2019, dated 2024)
# Molecular target: WIL-FL (Homo sapiens, UniProt P01721)
# Experiment: Unlabeled LC Protease Sensitivity Assay (proteinase K)
# Format: biochemical
# Details: small molecule 10 μM, WIL-FL 5 μM, proteinase K 50 nM, 2 hours at 37° C.
# Outline: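 Compound at 10 μM (1% DMSO) is mixed with 5 μM WIL-FL and 50 nM proteinase K in PBS pH 7.4/0.02% Pluronic F-127, 37 °C, 2 h, then quenched with PMSF. Remaining protein measured by SEC-UPLC peak area at 280 nm and expressed as fold protection relative to vehicle and no-protease controls.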
row,Structure (SMILES),Protection (fold protection of LC from protease)
1,"CCN(CC)c1ccc2c(C)c(CCOC(=O)NCc3cccc(-c4cn[nH]c4)c3)c(=O)oc2c1 [Compound 164, 2-(7-(diethylamino)-4-methyl-2-oxo-2H-chromen-3-yl)ethyl (3-(1H-pyrazol-4-yl)benzyl)carbamate]",C (C ≥ 0.6)
2,"CCN(CC)c1ccc2c(C)c(CCOC(=O)NCc3cccc(-c4nc[nH]n4)c3)c(=O)oc2c1 [Compound 165, 2-(7-(diethylamino)-4-methyl-2-oxo-2H-chromen-3-yl)ethyl (3-(1H-1,2,4-triazol-5-yl)benzyl)carbamate]",C (C ≥ 0.6)
3,"CCN(CC)c1ccc2c(C)c(CCOC(=O)NCc3cccc(-c4cccnn4)c3)c(=O)oc2c1 [Compound 166, 2-(7-(diethylamino)-4-methyl-2-oxo-2H-chromen-3-yl)ethyl (3-(pyridazin-3-yl)benzyl)carbamate]",C (C ≥ 0.6)
4,"CCC(CC)c1ccc2c(C)cc(=O)oc2c1 [Compound 168, 4-methyl-7-(pentan-3-yl)-2H-chromen-2-one]",A (A < 0.3))
5,"Cc1cc(=O)oc2cc(C(F)(F)F)ccc12 [Compound 169, 4-methyl-7-(trifluoromethyl)-2H-chromen-2-one]",A (A < 0.3))
6,"CCN(CC)c1ccc2c(C)c(CCOC(=O)NCc3cccc(C(=N)NO)c3)c(=O)oc2c1 [Compound 170, 2-(7-(diethylamino)-4-methyl-2-oxo-2H-chromen-3-yl)ethyl (3-(N-hydroxycarbamimidoyl)benzyl)carbamate]",C (C ≥ 0.6)
7,"Cc1cc(=O)oc2cc(OC(C)c3cccnc3)ccc12 (centres unmarked) [Compound 171, 4-methyl-7-(1-(pyridin-3-yl)ethoxy)-2H-chromen-2-one]",A (A < 0.3))
8,"Cc1cc(=O)oc2cc(OC(C)c3ccncc3)ccc12 (centres unmarked) [Compound 172, 4-methyl-7-(1-(pyridin-4-yl)ethoxy)-2H-chromen-2-one]",A (A < 0.3))
9,"Cc1cc(=O)oc2cc(OC(C)c3cnccn3)ccc12 (centres unmarked) [Compound 173, 4-methyl-7-(1-(pyrazin-2-yl)ethoxy)-2H-chromen-2-one]",A (A < 0.3))
10,"Cc1cc(=O)oc2cc(OC(C)c3ccccn3)ccc12 (centres unmarked) [Compound 174, 4-methyl-7-(1-(pyridin-2-yl)ethoxy)-2H-chromen-2-one]",A (A < 0.3))
11,"CCN(CC)c1ccc2c(C)c(CCN3C(=O)NC4(CCN(C(=O)c5c[nH]cn5)CC4)C3=O)c(=O)oc2c1 [Compound 176, 3-(2-(7-(diethylamino)-4-methyl-2-oxo-2H-chromen-3-yl)ethyl)-8-(1H-imidazole-4-carbonyl)-1,3,8-triazaspiro[4.5]decane-2,4-dione]",B (3 ≤ B < 0.6)
12,"CCN(CC)c1ccc2c(C)c(CCN3C(=O)NC4(CCN(C(=O)c5ncc[nH]5)CC4)C3=O)c(=O)oc2c1 [Compound 177, 3-(2-(7-(diethylamino)-4-methyl-2-oxo-2H-chromen-3-yl)ethyl)-8-(1H-imidazole-2-carbonyl)-1,3,8-triazaspiro[4.5]decane-2,4-dione]",C (C ≥ 0.6)
13,"CCN(CC)c1ccc2c(C)c(CCN3C(=O)NC4(CCN(C(=O)c5ccc[nH]c5=O)CC4)C3=O)c(=O)oc2c1 [Compound 178, 3-(2-(7-(diethylamino)-4-methyl-2-oxo-2H-chromen-3-yl)ethyl)-8-(2-oxo-1,2-dihydropyridine-3-carbonyl)-1,3,8-triazaspiro[4.5]decane-2,4-dione]",A (A < 0.3))
14,"CCN(CC)c1ccc2c(C)c(CCN3C(=O)NC4(CCNC4)C3=O)c(=O)oc2c1 (centres unmarked) [Compound 179, 3-(2-(7-(diethylamino)-4-methyl-2-oxo-2H-chromen-3-yl)ethyl)-1,3,7-triazaspiro[4.4]nonane-2,4-dione]",B (3 ≤ B < 0.6)
